Experiments:
[1] = method code SF-RI, from Korenman, M.; Dobromyslova, M. (1975). Distribution of cellosolves between organic solvents and water. Zh. Prikl. Khim., 48(12)2791-2794.
[2] = method code SF-AS, from DOI: 10.1016/0006-2952(65)90227-3, PMID: 14322976; conditions: pH 6.8
[3] = not given; remark: listed apart in the source
[4] = from Tehrany, E.A.; Desobry, S. (2005). Comparison between the different calculation methods of partition coefficient of aroma compounds with a difference chemical classes in octanol/water system. …
[5] = method code SF, from DOI: 10.1016/j.tca.2016.07.020; conditions: pH 7.4
[6] = not given; remark: listed apart in the source
[7] = from Büchel, H.; Draber, W.; Trebst, A.; Pistorius, E. (1966). Inhibition of photosynthetic reactions in isolated chloroplasts by benzimidazole-type herbicides and their structure-activity relation, …; conditions: pH 7.0
[8] = not given; remark: listed apart in the source
[9] = method code SF, from DOI: 10.1016/0041-008x(67)90079-8
[10] = not given; remark: listed apart in the source
[11] = not given; remark: listed apart in the source
[12] = not given; remark: listed apart in the source
[13] = method code SF-AS, from Halmekoski, J.; Hannikainen, H. (1964). Rm values of hydroxy-substituted benzoic acids and partition coefficients of the acids between water and aliphatic alcohols. Suomen Kemist. B, 37, 221-226.
[14] = not given; remark: listed apart in the source
[15] = not given; remark: listed apart in the source
[16] = method code SF-AS, from Kosanovic, D.; Dumanovic, D.; Jovanovic, J. (1988). Solubility in octanol And the octanol-water partition coefficients of some 4(5)- and 5-nitroimidazoles. 53(10)559-563.
[17] = method code SF-AS, from Korenman, I.; Lineva, S.; Gezikova, N. (1978). Extraction of naphthol-sulfonic acids from aqueous solution. Zh. Prikl. Khim., 51(4)869-871.
[18] = method code SF-HPLC, from DOI: 10.1016/j.nucmedbio.2010.03.011, PMID: 20610161; conditions: pH 7.4
[19] = method code SF-GLC, from DOI: 10.1016/s0021-9673(00)92516-0
[20] = method code SF-RC, from DOI: 10.1111/j.2042-7158.1987.tb03173.x, PMID: 2886623
[21] = method code SF-CR+AS, from Korenman, I.; Lineva, S.; Tishchenko, M. (1979). The influence of substituents on the extraction of phenols. Russ. J. Phys. Chem., 53(11)1678-1679.; conditions: pH 2.5
[22] = not given; remark: listed apart in the source
[23] = not given; remark: listed apart in the source
[24] = method code SF-AS, from DOI: 10.1002/jps.2600671008, PMID: 702280; conditions: pH 7.0
[25] = method code SF-AS, from DOI: 10.1016/0891-5849(94)00112-w, PMID: 7744299; conditions: pH 7.5
[26] = method code SF-GLC, from DOI: 10.1021/ac00241a023
[27] = method code SF-CR+AS, from Korenman, Y. (1974). Extraction of 2-halophenols from aqueous solutions. Zh. Prikl. Khim., 47(7)1663-1666.
[28] = not given; remark: listed apart in the source
[29] = method code SF-AS, from DOI: 10.1016/0045-6535(84)90003-1
[30] = method code SF, from DOI: 10.1021/jm00307a001, PMID: 5637185
[31] = method code SF, from DOI: 10.1016/0005-2744(69)90103-x, PMID: 4387594
[32] = method code SF-HPLC, from DOI: 10.1016/s0045-6535(01)00105-9, PMID: 11695583
[33] = method code SF-GLC, from DOI: 10.1002/jps.2600641120, PMID: 1195116
[34] = method code SF-AS, from DOI: 10.1016/0006-2952(74)90620-0, PMID: 4822742; conditions: pH 7.4
[35] = method code SF-AS, from DOI: 10.1016/s0045-6535(98)00368-3
[36] = not given; remark: listed apart in the source
[37] = method code SF, from DOI: 10.1016/s0960-894x(00)80094-3; conditions: pH 7.4
[38] = method code SF-GLC, from DOI: 10.1021/je970020p
[39] = pH 5.6
[40] = method code SF-GLC, from DOI: 10.1021/jo01265a071
[41] = method code SF-GLC,RC, from DOI: 10.1016/0048-3575(73)90050-3
[42] = method code SF-AS, from DOI: 10.1093/ajhp/38.9.1308, PMID: 7282713; conditions: pH 7.4
[43] = not given; remark: listed apart in the source
[44] = method code SF-TN, from DOI: 10.1085/jgp.71.1.93, PMID: 621494
[45] = method code SF, from DOI: 10.1016/0014-2999(70)90221-9, PMID: 5440297; conditions: pH 7.4
[46] = method code G-HPLC, from He, Y.; Zhao, Y.; Wang, L.; An, F.; Mo, H.; Yang, K.; Liu, Y.; Yu, G.; Xu, X. (1994). Determination of n-octanol/water partition coefficient of organic compound. Huanjing Huaxue, 13(3)195-197.
[47] = method code SF-CR+AS, from Korenman, I.; Kotelyanskaya, B.; Nefedova, A. (1976). Extraction of mononitrophenols from aqueous solutions. Zh. Prikl. Khim., 49(5)1150-1152.
[48] = method code SF-GR, from DOI: 10.1021/jm00219a024, PMID: 926124
[49] = method code SF, from DOI: 10.1016/j.ejps.2014.11.002, PMID: 25447745; conditions: pH 7.4
[50] = not given; remark: listed apart in the source
[51] = not given; remark: listed apart in the source

**Q.** Which logP [1] does the source give for CC(C)OCCO here?
**A.** Its logP is 0.05.

**Q.** Which logP does the source give for Oc1c(Cl)cc(Cl)c(Cl)c1O here?
**A.** Its logP is 3.6.

**Q.** Which logD [2] does the source give for O=c1ccccc(O)c1 here?
**A.** The logD was 0.81.

**Q.** With CCCCCO as the compound, how does the logP [3] read?
**A.** Its logP is 1.41.

**Q.** Which logP [4] does the source give for CCCCCC=O here?
**A.** The logP was 1.85.

**Q.** With NC(=S)c1ccccn1 as the compound, how does the logD [5] read?
**A.** Its logD is 1.14.

**Q.** For Oc1c(Br)cc(Br)cc1Br, which logP [6] is on record?
**A.** Its logP is 4.24.

**Q.** For Clc1nc2c(Cl)c(Cl)c(Cl)c(Cl)c2[nH]1, which logD [7] is on record?
**A.** The logD was 4.53.

**Q.** Which logP [8] does the source give for Brc1ccc(Br)cc1 here?
**A.** The logP was 3.89.

**Q.** For Clc1nc(Cl)c(Cl)c(Cl)c1Cl, which logP [9] is on record?
**A.** The logP was 3.53.

**Q.** For Oc1cc(Cl)c(Cl)cc1Cl, which logP [10] is on record?
**A.** Its logP is 3.63.

**Q.** Which logP [11] does the source give for O=C(O)c1ccccc1F here?
**A.** The logP was 1.63.

**Q.** With OCCC(F)(F)C(F)(F)C(F)(F)C(F)(F)F as the compound, how does the logP [12] read?
**A.** The logP was 3.28.

**Q.** Which logP [13] does the source give for O=C(O)c1cccc(O)c1O here?
**A.** The logP was 1.2.

**Q.** With CCCC[N+](=O)[O-] as the compound, how does the logP [14] read?
**A.** The logP was 1.38.

**Q.** With Oc1cccc(Cl)c1Cl as the compound, how does the logP [15] read?
**A.** Its logP is 2.98.

**Q.** With Cc1ncc([N+](=O)[O-])n1C as the compound, how does the logP [16] read?
**A.** Its logP is 0.31.

**Q.** Which logP [17] does the source give for CC1=C(C(N)=O)SCCO1 here?
**A.** The logP was -0.22.

**Q.** With O=[N+]([O-])c1ncn(CC(O)CF)n1 (configuration not stated) as the compound, how does the logD [18] read?
**A.** The logD was -0.46.

**Q.** For ClCc1ccc(Cl)cc1Cl, which logP [19] is on record?
**A.** The logP was 3.82.

**Q.** Which logP [20] does the source give for OC[C@@H](O)[C@@H](O)[C@H](O)[C@H](O)CO (racemic) here?
**A.** Its logP is -2.47.

**Q.** Which logD [21] does the source give for Cc1cc(N=O)ccc1O here?
**A.** The logD was 1.71.

**Q.** With CC(C)(C)OCCO as the compound, how does the logP [22] read?
**A.** The logP was 0.39.

**Q.** Which logP [23] does the source give for Oc1cc(Br)ccc1Br here?
**A.** The logP was 3.22.

**Q.** For Clc1ccccn1, which logD [24] is on record?
**A.** The logD was 1.34.

**Q.** For CC(C)(C)N=O, which logD [25] is on record?
**A.** The logD was 0.91.

**Q.** With Brc1cc(Br)c(Br)cc1Br as the compound, how does the logP [26] read?
**A.** The logP was 5.13.

**Q.** Which logP [27] does the source give for Oc1ccccc1I here?
**A.** Its logP is 2.64.

**Q.** For Clc1ccc(Cl)cc1, which logP [28] is on record?
**A.** Its logP is 3.48.

**Q.** For Oc1cc(Cl)cc(Cl)c1Cl, which logP [29] is on record?
**A.** The logP was 3.84.

**Q.** With C=CC(CC)OC(N)=O (configuration not stated) as the compound, how does the logP [30] read?
**A.** Its logP is 1.09.

**Q.** With Nc1cccc(Br)c1 as the compound, how does the logP [31] read?
**A.** Its logP is 2.1.

**Q.** With Brc1ccc(Br)c(Br)c1Br as the compound, how does the logP [32] read?
**A.** Its logP is 5.

**Q.** For C1CCc2nnnn2CC1, which logP [33] is on record?
**A.** Its logP is 0.14.

**Q.** Which logD [34] does the source give for O=S1(=O)N=CNc2ccccc21 here?
**A.** The logD was 0.18.

**Q.** Which logP [35] does the source give for COc1cc(OC)ncn1 here?
**A.** Its logP is 0.96.

**Q.** For CSc1ncnc2[nH]cnc12, which logP [36] is on record?
**A.** Its logP is 0.57.

**Q.** For C[C@@H]1CN(O)C(=O)[C@@H]1N, which logD [37] is on record?
**A.** The logD was -3.42.

**Q.** Which logP [38] does the source give for Clc1c(Cl)c(Cl)c(Cl)c(Cl)c1Cl here?
**A.** The logP was 5.74.

**Q.** For NC(=O)c1ccc([N+](=O)[O-])cc1, which logD [39] is on record?
**A.** The logD was 0.82.

**Q.** Which logP [40] does the source give for CCCCCl here?
**A.** The logP was 2.39.

**Q.** For ClCc1ccccc1, which logP [41] is on record?
**A.** The logP was 2.3.

**Q.** With Cc1ncsc1CCCl as the compound, how does the logD [42] read?
**A.** Its logD is 2.12.

**Q.** For Oc1c(Cl)c(Cl)c(Cl)c(Cl)c1Cl, which logP [43] is on record?
**A.** Its logP is 4.79.

**Q.** With CCCC(O)C(=O)O (configuration not stated) as the compound, how does the logP [44] read?
**A.** Its logP is 0.45.

**Q.** Which logD [45] does the source give for O=C[C@H](O)[C@H](O)[C@H](O)CO here?
**A.** The logD was -2.32.

**Q.** With Clc1ccccc1Cl as the compound, how does the logP [46] read?
**A.** Its logP is 3.34.

**Q.** For O=[N+]([O-])c1ccc(O)cc1, which logP [47] is on record?
**A.** Its logP is 1.95.

**Q.** Which logP [48] does the source give for CCCNC(=O)NO here?
**A.** The logP was -0.22.

**Q.** With O=[N+]([O-])O[C@H]1CO[C@H]2[C@@H]1OC[C@H]2O[N+](=O)[O-] as the compound, how does the logD [49] read?
**A.** Its logD is 1.2.

**Q.** Which logP [50] does the source give for O=[N+]([O-])/C=C1\NCCCS1 here?
**A.** The logP was -0.4.

**Q.** Which logP [51] does the source give for Oc1nc(Cl)c(Cl)cc1Cl here?
**A.** Its logP is 2.27.
